In patent US4824941A, “Specific antibody to the native form of 2'5'-oligonucleotides, the method of preparation and the use as reagents in immunoassays or for binding 2'5'-oligonucleotides in biological systems” (priority 1988, dated 1989):

Assays:
[1] = molecular target: specific antibody to 2'5'-oligo(A); assay: Competitive binding radio-immune assay (inhibition of binding of [32P]-labelled 2'5'A tetramer pCp probe to antibody, nitrocellulose filter); settings: 25 μl, 0°, 1 hr; [32P] 2'5'A tetramer pCp probe
Method: The titers of the antisera are determined from the reciprocal of the dilution which gives 50% retention of the radioactivity to a nitrocellulose filter. The antiserum dilution is incubated in 25 μl of 20 mM KOAc, 10 mM HEPES-KOH, pH 7.4, 1.5 mM Mg(OAc)2 containing 1 mg/ml bovine serum albumin (BSA) and 5-6000 cpm of [^32 P] terminally labelled 2'5'A tetramer pCp (Amersham International: specific activity, approximately 3000 Ci/mmole). After incubation at 0° for 1 hr, the mixtures are diluted with 3 ml of ice cold 90 mM KCl, 20 mM Tris-HCl, pH 7.6 and passed through 25 mm discs of nitrocellulose (Millipore, type HAWP, 0.45 μ) with a filtration apparatus. The filters are washed with a further 2 portions of the same buffer, and retained radioactivity counted by Cerenkov radiation in a scintillation counter.
In the simple radio-immune assay described in Example 2, the unknown is determined by dilution of the radioactivity bound from the constant amount of known radioactive probe. […] This inhibition is a measure of the affinity of the related compound for the antibody, and will also indicate to what extent such compounds might interfere with the assay, if present in the material being analysed. […] A collection of 2'5'-adenylates and related compounds were prepared as follows. The dimer, trimer, tetramer and pentamer were obtained from the DEAE-cellulose fractionation of example 1. The tetramer was partially digested with bacterial alkaline phosphatase and the products separated by high performance liquid chromatography on a Partisil SAX column (Whatman), with 10 mM potassium phosphate buffer, pH 6.8, 20% ethanol and a gradient from 10 to 500 mM KCl. Acetyl and succinyl derivatives of the tetramer were obtained by reaction with acetic and succinic anhydride, according to the method of Example 1. Other compounds were from commercial sources.

2'5'-oligo(A) synthetase [2] = assay: 2'5'-oligo(A) synthetase in 3T3 cells, conventional assay ([3H]-ATP to [3H]-2'5'-oligo(A)); assay type: cell-based, Swiss mouse; settings: 3T3 cells treated overnight; 10 μM prostaglandin F2α or 100 u/ml interferon; none 556, background (197)
From the text: (§1) Because of the extremely efficient reaction condition of cell-free systems, it is possible to assay low levels of 2'5'-oligo(A) synthetase. However, it is sometimes desirable to measure low levels from extremely small amounts of precious starting material. By coupling the extremely sensitive measurement of 2'5'-oligo(A) according to the methods of the present invention, with the enzymatic assay for 2'5'-oligo(A) polymerase, the enzyme can be determined with 10^5 -fold higher sensitivity than was previously possible. In the example, Swiss mouse 3T3 fibroblast cells are stimulated into a cell cycle by a variety of hormones and factors (for literature on this subject see the article "Criteria for the establishment of the biological significance of ribosomal protein phosphorylation" in Current Topics in Cellular Regulation, volume 21, 1982, pages 89-99, by J. Gordon, P. J. Nielsen, K. L. Manchester, H. Towbin, L. Jimenez de Asua and G. Thomas). […] One portion (198 μl) is analysed for conversion of the ATP to 2'5'-oligo(A) from the retention of radioactivity on an analytical DEAE cellulose column (see example 4). The other portion (2 μl) is diluted in the range 250 to 10,000-fold and the 2'5'-oligo(A) determined by the radioimmune assay (see example 3).

2'5'-oligo(A) synthetase [3] = assay: 2'5'-oligo(A) synthetase in 3T3 cells, radio-immune assay of reaction product; assay type: cell-based, Swiss mouse; settings: 3T3 cells treated overnight; 10 μM prostaglandin F2α or 100 u/ml interferon; none 50, background 0
From the text: as §1

[4] = tested on: Friend mouse erythroleukemia cells (FBU); assay: 2'5'-oligo(A) levels in differentiating Friend erythroleukemia cells, clone FBU; assay type: cell-based; settings: 2% (v/v) DMSO
Method: This is an example for cells growing in culture, but is universally applicable to any biological material: cell cultures, organs, tissues, bodily fluids such as blood, urine, cerebrospinal fluids, milk or any other suitably available material. Cells in a petri dish are rapidly washed with buffered saline (this step is dispensed with in the case of bodily fluids), then enough ice cold 5% trichloracetic acid (TCA) to cover the layer of cells (3 ml for a 7 cm diameter petri dish) and the dish is kept on ice for 5 min. The TCA and detached cells are removed and centrifuged to remove the insoluble material, and the dish and pellet are re-extracted with a similar volume of 5% TCA and the supernatants pooled. Alternatively, in the case of a cell suspension culture, the cells are pelleted by centrifugation at room temperature, the cells resuspended in a volume of buffered saline equal to the volume of the pellet, and approximately 10 volumes of 5% TCA are added. The insoluble material is removed by centrifugation and the pellet extracted with 1/2 the previous volume of 5% TCA. The supernatants are pooled. All operations with TCA are performed between 0° C. and 5° C. The pooled supernatants are freed of TCA by extraction with an equal volume of 30% (v/v) tri-N-octylamine in Freon 113 (Dow Chemicals). The upper aqueous phase is collected and the Freon phase re-extracted with 1/2 the preceeding volume of distilled water. Since biological material may contain ATP in the mM range, and it is desirable to measure 2'5'-oligo(A) in the nM range, it may be desirable to remove such 10^6 -fold excess of ATP, which might interfere with the assay. […]
Friend mouse erythroleukemia cells can be induced to differentiate and become erythropoietic under the influence of a variety of reagents, especially dimethylsulfoxide. […] The 2'5'-oligo(A) content is determined from the reduction of the binding of the [^32 P] labelled probe as in example 2 and 3.

[5] = tested on: Friend mouse erythroleukemia cells (N46AP); assay: 2'5'-oligo(A) levels in differentiating Friend erythroleukemia cells, clone N46AP; assay type: cell-based; settings: 1.4% (v/v) DMSO
Method: This is an example for cells growing in culture, but is universally applicable to any biological material: cell cultures, organs, tissues, bodily fluids such as blood, urine, cerebrospinal fluids, milk or any other suitably available material. Cells in a petri dish are rapidly washed with buffered saline (this step is dispensed with in the case of bodily fluids), then enough ice cold 5% trichloracetic acid (TCA) to cover the layer of cells (3 ml for a 7 cm diameter petri dish) and the dish is kept on ice for 5 min. The TCA and detached cells are removed and centrifuged to remove the insoluble material, and the dish and pellet are re-extracted with a similar volume of 5% TCA and the supernatants pooled. Alternatively, in the case of a cell suspension culture, the cells are pelleted by centrifugation at room temperature, the cells resuspended in a volume of buffered saline equal to the volume of the pellet, and approximately 10 volumes of 5% TCA are added. The insoluble material is removed by centrifugation and the pellet extracted with 1/2 the previous volume of 5% TCA. The supernatants are pooled. All operations with TCA are performed between 0° C. and 5° C. The pooled supernatants are freed of TCA by extraction with an equal volume of 30% (v/v) tri-N-octylamine in Freon 113 (Dow Chemicals). The upper aqueous phase is collected and the Freon phase re-extracted with 1/2 the preceeding volume of distilled water. Since biological material may contain ATP in the mM range, and it is desirable to measure 2'5'-oligo(A) in the nM range, it may be desirable to remove such 10^6 -fold excess of ATP, which might interfere with the assay. The ATP and other nucleotides which might interfere with the assay may then be removed chromatographically with DEAE cellulose (Whatman DE-52) equilibrated with 125 mM NH4 HCO3 (pH 7.8). The loading ratio is the same as for the preparative columns of example 1, but microcolumns of 200 μl are optimal for this analytical scale. The column is washed with 15 ml of the same buffer to remove the ATP and other unbound material. The 2'5'-oligo(A) is eluted with 2 ml of 0.5M NH4 HCO3, and the samples are lyophilized after addition of 1/10th volume of ethanol. The samples may be stored indefinitely in anhydrous form and re-dissolved with suitable volumes of solvent for the radio-immuno assay as described in example 3.
Friend mouse erythroleukemia cells can be induced to differentiate and become erythropoietic under the influence of a variety of reagents, especially dimethylsulfoxide. Such cells are also known to produce the enzyme 2'5'-oligo(A) synthetase. Before the method of the present invention, it was not possible to determine the 2'5'oligo(A) directly in these cells. The determination is described in this example. The Friend cells (clone FBU or N46AP) are grown in Dulbecco's modified Eagle's Medium containing 10% fetal calf serum, 2% (v/v) dimethylsulfoxide for FBU or 1.4% (v/v) DMSO for N46 AP and 1 mM glutamine. The cells are diluted with the same medium daily to maintain a density of 5.10^5 cells per ml. At various times, 30 ml cultures are collected and processed as described in the preceeding example. The lyophilized material is dissolved in the buffer corresponding to the reaction mixture for the assay, as in example 2, but containing 0.1 mg/ml of bovine serum albumin. The 2'5'-oligo(A) content is determined from the reduction of the binding of the [^32 P] labelled probe as in example 2 and 3.

2'5'-oligo(A) synthetase [6] = settings: source of value not given; read-out: Km of the enzyme; cited from earlier work

Compound: Nc1nc2c(ncn2[C@@H]2O[C@H](COP(=O)(O)OP(=O)(O)OP(=O)(O)O)[C@@H](O)[C@H]2O)c(=O)[nH]1 [GTP]
- amount giving 50% inhibition of the maximal binding of the [^32 P]-labelled probe [1]: > 3,000,000 fmoles

Compound: Nc1ccn([C@@H]2O[C@H](COP(=O)(O)OP(=O)(O)OP(=O)(O)O)[C@@H](O)[C@H]2O)c(=O)n1 [CTP]
- amount giving 50% inhibition of the maximal binding of the [^32 P]-labelled probe [1]: > 3,000,000 fmoles

Compound: Nc1ncnc2c1ncn2[C@@H]1O[C@H](COP(=O)(O)OP(=O)(O)O)[C@@H](O)[C@H]1O [ADP]
- amount giving 50% inhibition of the maximal binding of the [^32 P]-labelled probe [1]: > 3,000,000 fmoles

Compound: pA(2'p5'A)3
- amount giving 50% inhibition of the maximal binding of the [^32 P]-labelled probe [1]: 25 fmol

Compound: Nc1ccn([C@@H]2O[C@H](COP(=O)(O)O)[C@@H](OP(=O)(O)O)[C@H]2O)c(=O)n1 [pCp]
- amount giving 50% inhibition of the maximal binding of the [^32 P]-labelled probe [1]: > 3,000,000 fmoles

Compound: NC(=O)C1=CN([C@@H]2O[C@H](COP(=O)(O)OP(=O)(O)OC[C@H]3O[C@@H](n4cnc5c(N)ncnc54)[C@H](O)[C@@H]3O)[C@@H](O)[C@H]2O)C=CC1 [NADH]
- amount giving 50% inhibition of the maximal binding of the [^32 P]-labelled probe [1]: > 3,000,000 fmoles

Compound: O=c1ccn([C@@H]2O[C@H](COP(=O)(O)OP(=O)(O)OP(=O)(O)O)[C@@H](O)[C@H]2O)c(=O)[nH]1 [UTP]
- amount giving 50% inhibition of the maximal binding of the [^32 P]-labelled probe [1]: > 3,000,000 fmoles

Compound: CCCCC[C@H](O)/C=C/[C@@H]1[C@@H](C/C=C\CCCC(=O)O)[C@@H](O)C[C@H]1O [prostaglandin F2α]
- [^3 H]-ATP→[^3 H]-2'5'-oligo(A) (2'5'-oligo(A) synthetase [2]): 632 cpm/assay
- Radio-immune assay for 2'5'-oligo(A) (2'5'-oligo(A) synthetase [3]): 100 pmoles/assay

Compound: C[S+](C)[O-] [DMSO, dimethylsulfoxide]
- 2'5'-oligo(A) ([4]; day 1 post-DMSO (day 0: 2.6)): 28 fmoles/10^6 cells
- 2'5'-oligo(A) ([4]; day 2 post-DMSO): 28 fmoles/10^6 cells
- 2'5'-oligo(A) ([4]; day 4 post-DMSO): 20 fmoles/10^6 cells
- 2'5'-oligo(A) ([5]; day 1 post-DMSO (day 0: 7.5)): 7.8 fmoles/10^6 cells
- 2'5'-oligo(A) ([5]; day 2 post-DMSO): 4.3 fmoles/10^6 cells
- 2'5'-oligo(A) ([5]; day 3 post-DMSO): 17.5 fmoles/10^6 cells
- 2'5'-oligo(A) ([5]; day 5 post-DMSO): 63 fmoles/10^6 cells
- 2'5'-oligo(A) ([5]; day 6 post-DMSO): 53 fmoles/10^6 cells

Compound: Nc1ncnc2c1ncn2[C@@H]1O[C@H](COP(=O)(O)OP(=O)(O)OP(=O)(O)O)[C@@H](O)[C@H]1O [ATP]
- amount giving 50% inhibition of the maximal binding of the [^32 P]-labelled probe [1]: > 3,000,000 fmoles
- Km (2'5'-oligo(A) synthetase [6]): ~1000 µM

Compound: Nc1ncnc2c1ncn2[C@@H]1O[C@H](COP(=O)(O)O)[C@@H](O)[C@H]1O [AMP]
- amount giving 50% inhibition of the maximal binding of the [^32 P]-labelled probe [1]: > 3,000,000 fmoles

Compound: 5'-(phospho)3 (adenylyl 2'-5')2 adenosine [pppA(2'p5'A)2]
- amount giving 50% inhibition of the maximal binding of the [^32 P]-labelled probe [1]: 2.5 fmol
